According to article PMC9079959, “Substituted spirooxindole derivatives as potent anticancer agents through inhibition of phosphodiesterase 1” (RSC Advances, 2018):
Values joined by “and” are separate entries in the source; they are usually repeats but may differ in a detail not shown here. Equal values may be shown once. Read-outs that look alike come from different tables or passages of the source.

Experiments:
HepG2 cells = assay: MTT cytotoxicity assay, hepatocellular carcinoma HepG2; type: cell-based; settings: Homo sapiens, HepG2, MTT, 48 h
Method: (§1) The cytotoxic activity of the compounds was tested against different mammalian cancer cells, prostate carcinoma cells (PC-3), hepatocellular carcinoma (HepG2) and colon cancer cells (HCT-116). African green monkey kidney cells (Vero-B) were used as normal cells to study the selectivity towards the cancer cells. The cell lines were obtained from the American Type Culture Collection (ATCC). The cells were cultivated at 37 °C and 10% CO2 in DMEM (Lonza, Germany) medium supplemented with 10% fetal bovine serum (Lonza, Germany), 100 IU ml^−1 penicillin and 100 μg ml^−1 streptomycin (Lonza, Germany). […] The spirooxindole derivatives were solubilized in DMSO and stored at −20 °C. The viability of the cells was quantified using 3-(4,5-dimethylthiazol-2-yl)-2,5-diphenyl tetrazolium bromide (MTT), which measures the activity of mitochondrial succinate dehydrogenase in viable cells.[45,46]
(§2) The cells were seeded in 96-well plates at a concentration of 5 × 10^4 cells per ml (100 μl per well). […] DMSO was used as a negative control (0.1%). The cells were incubated for 48 h. After that, 15 μl of MTT (5 mg ml^−1 in PBS) was added to each well and incubated for another 4 h. The formazan crystals were solubilized by 100 μl of acidified SDS solution (10% SDS/0.01 N HCl in PBS). The absorbance was measured after 14 h of incubation at 37 °C and under 5% CO2 at 570 nm by using a BioTek microplate reader. Each experiment was repeated 3 times and a standard deviation was calculated (SD±). […] The growth of the cells was monitored and the images were acquired by Gx microscopes (GXMGXD202 Inverted Microscope) at 10× magnification.

HCT-116 cells = assay: MTT cytotoxicity assay, colorectal cancer cell line HCT-116; type: cell-based; settings: for IC50: Homo sapiens, HCT-116, MTT, 48 h
Method: as §1, §2

phosphodiesterase 1 = type: biochemical, snake; settings: at 2 μM
Method: A phosphodiesterase I inhibition assay was performed using snake venom according to a previously reported method with minute variations. Briefly, 33 mM Tris–HCl buffer of pH 8.8 (97 μl), 30 mM magnesium acetate with an enzyme concentration of 0.000742 U well^−1 and 0.33 mM bis-(p-nitrophenyl) phosphate (Sigma N-3002, 60 μl) as substrate were taken. […] After a pre-incubation period of 30 min, the enzyme with the test samples was observed spectrophotometrically for enzyme activity on a microtiter plate reader at 37 °C by following the rate of change in OD min^−1 at 410 nm of the p-nitrophenol released from p-nitrophenyl phosphate. All assays were processed in triplicate.[47]

PC-3 cells = assay: MTT cytotoxicity assay, prostate cancer cell line PC-3; type: cell-based; settings: Homo sapiens, PC-3, MTT, 48 h
Method: as §1, §2

Vero-B cells = assay: MTT cytotoxicity assay, normal cells Vero-B; type: cell-based, African green monkey; settings: Chlorocebus sabaeus, Vero B, 48 h
Method: as §1, §2

**Q.** For `O=C(c1c[nH]c2ccccc12)[C@@H]1C(c2ccc(Cl)cc2Cl)[C@@H]2CCCN2[C@@]12C(=O)Nc1ccccc12` (stereo partly drawn) [4d, (2′R,3S,7a′S)-1′-(2,4-Dichlorophenyl)-2′-(1H-indole-3-carbonyl)-1′,2′,5′,6′,7′,7a′-hexahydrospiro[indoline-3,3′-pyrrolizin]-2-one], which melting point is on record?
**A.** 149 to 151 °C

**Q.** What about the IC50 (HepG2 cells; ± SD of 3 experiments, read-out: HepG2 (IC50)) of the same compound?
**A.** 2 ± 0.1 µM

**Q.** What about the IC50 (HepG2 cells; read-out: HepG2 (IC50, μg ml^−1)) of the same compound?
**A.** 1 µg/mL

**Q.** What about the IC50 (HCT-116 cells; ± SD of 3 experiments, read-out: HCT-116 (IC50)) of the same compound?
**A.** 9 ± 0.6 µM

**Q.** And the IC50 (HCT-116 cells; read-out: HCT-116 (IC50, μg ml^−1))?
**A.** 4.6 µg/mL

**Q.** What about the “SI (selectivity index)” value (HCT-116 cells; IC50 normal (VERO-B) / IC50 cancer (HCT-116)) of the same compound?
**A.** > 1 and 1

**Q.** What about the “inhibitory activity against phosphodiesterase enzyme” value (phosphodiesterase 1) of the same compound?
**A.** 74.2%

**Q.** And the IC50 (PC-3 cells; ± SD of 3 experiments, read-out: PC-3 (IC50))?
**A.** 2 ± 0.125 µM

**Q.** And the IC50 (PC-3 cells; read-out: PC-3 (IC50, μg ml^−1))?
**A.** 1 µg/mL

**Q.** And the IC50 (Vero-B cells)?
**A.** 9 µM
